Data published in US20230200390A1, “SELECTIVE HERBICIDES BASED ON SUBSTITUTED ISOXAZOLIN CARBOXAMIDES AND MEFENPYR-DIETHYL” (BAYER AKTIENGESELLSCHAFT, priority 2020, published 2023).

What was measured:
Type in all cases: in vivo
[1] = tested on: spring barley, HORVS Montoya; assay: Tank-mix; post-emergence: crop damage by herbicide with/without safener mefenpyr-diethyl; conditions: 10 DAT
Description: (§1) Seeds of crops (spring wheat, TRZAS; spring barley, HORVS; maize, ZEAMA) were placed in sandy loam soil in peat pots, covered with soil and cultivated in a greenhouse under good growth conditions. Two to three weeks after sowing, the test plants were treated at the 1 to 3-leaf stage. The herbicide/safener active compound combinations according to the invention, formulated as wettable powders or emulsion concentrates, and, in parallel tests, the correspondingly formulated individual active compounds were sprayed onto the green parts of the plants in various dosages using an amount of water of 300 l/ha (converted).
(§2) The pots were returned under good growing conditions in a glasshouse and a visual assessment of herbicidal effects was made at intervals from 1 to 3 weeks after herbicide application (DAT=days after treatment). Assessment was on a percentage basis in comparison with untreated control plants (0%=no injury, 100%=complete kill).

[2] = tested on: spring wheat, TRZAS Triso; assay: as above; conditions: 21 DAT
Description: as §1, §2

[3] = tested on: spring barley, HORVS Montoya; assay: Seed treatment with safener; post-emergence herbicide, crop damage; conditions: 10 DAT; for HER effect + SAF / Reduction [%] / Reduction [Difference]: mefenpyr-diethyl 0.5 g a.i./kg seed
Text: (§3) For safener seed treatment trials, sufficient seed amounts of the respective crops (spring wheat (TRZAS); spring barley (HORVS)) were weighed into screw cap glass bottles with a minimum volume trice of the seeds.
(§4) As a first step, specified safeners formulated as wettable powder (WP) or wettable granules (WG) were weighed out for the required dosages (g a.i./kg seed), corresponding to the seed amounts. The safener amounts were mixed with a coloured slurry blind formulation type, prediluted with milk at 3.5% fat rate (25 mgs slurry formulation plus 2 ml milk per 10 grams of seed). A tube roller was used for coating. The solutions were gradually pipetted each on the rotating seeds followed by coating for min. 3 hours until all liquid had been soaked up by the seeds. Thereafter, the coated seeds were put flat on open trays for drying over night at room temperature.
(§5) Treated seeds were then placed into pots (7 cm diameter) on the surface of sandy loam, pressed down, flat covered with additional soil and finally covered with sandy soil, also pressed down, watered, and kept under good growth conditions in a greenhouse, until the plants had reached 2-leaf-stage (BBCH 12).
(§6) At that stage, post-emergence application of the specified herbicides was done on:
(§7) a) pot sets containing plants with safener-coated seeds as described above,
(§8) b) as a reference, pot sets of plants without seed treatment.
(§9) The herbicides were formulated as wettable powder (WP). Equivalent to the spray area, compound amounts were weighed out and diluted related to the water application rate (300 l/ha) to an aqueous suspension plus additive (1 l/ha MERO). Dosage related equivalents were conventionally sprayed on trays with the potted plants.
(§10) After application, the test plants were kept under good growth conditions in a greenhouse.
(§11) Assessment timings were 10 and 21 days after treatment (DAT) with the herbicide, by visual scoring of the crop damage in % (comparison of untreated with treated plants, either sprayed only with herbicide or with herbicide on plants with treated seeds).

[4] = tested on: spring wheat, TRZAS Triso; assay: as above; conditions: 21 DAT; for HER effect + SAF [%] (crop damage) / Reduction [%] / Reduction [Difference]: mefenpyr-diethyl 0.5 g a.i./kg seed; for HER effect [%] (crop damage, herbicide without safener): no safener
Text: as §3, §4, §5, §6, §7, §8, §9, §10, §11

[5] = HER 8 g a.i./ha + mefenpyr-diethyl 50 g a.i./ha
[6] = HER 32 g a.i./ha + mefenpyr-diethyl 100 g a.i./ha
[7] = HER 2 g a.i./ha + mefenpyr-diethyl 50 g a.i./ha
[8] = HER 32 g a.i./ha post-emergence
[9] = herbicide alone 8 g a.i./ha post-emergence
[10] = herbicide alone 32 g a.i./ha post-emergence
[11] = HER 1.5 g a.i./ha + mefenpyr-diethyl 50 g a.i./ha
[12] = HER 6 g a.i./ha + mefenpyr-diethyl 50 g a.i./ha
[13] = HER 24 g a.i./ha + mefenpyr-diethyl 100 g a.i./ha

COC(=O)C1COCC1NC(=O)C1(C)CC(c2cc(F)cc(F)c2)=NO1 (mixture of isomers) [Example 1.93]
HER effect + SAF [1, 5]: 10% | Reduction [%] [1, 5]: 88% | Reduction [Difference] [1, 5]: 75 | HER effect + SAF [1, 6]: 30% | Reduction [%] [1, 6]: 67% | Reduction [Difference] [1, 6]: 60 | HER effect ([1]; herbicide alone 8 g a.i./ha): 85% | HER effect ([1]; herbicide alone 32 g a.i./ha): 90% | HER effect + SAF [2, 7]: 10% | Reduction [%] [2, 7]: 88% | Reduction [Difference] [2, 7]: 75 | HER effect + SAF [2, 5]: 50% | Reduction [%] [2, 5]: 46% | Reduction [Difference] [2, 5]: 43 | HER effect ([2]; herbicide alone 2 g a.i./ha): 85% | HER effect ([2]; herbicide alone 8 g a.i./ha): 93% | HER effect + SAF ([3]; HER 8 g a.i./ha post-emergence): 30% | Reduction [%] ([3]; HER 8 g a.i./ha post-emergence): 65% | Reduction [Difference] ([3]; HER 8 g a.i./ha post-emergence): 55 | HER effect + SAF [3, 8]: 70% | Reduction [%] [3, 8]: 22% | Reduction [Difference] [3, 8]: 20 | HER effect [3, 9]: 85% | HER effect [3, 10]: 90% | HER effect + SAF [%] (crop damage) ([4]; HER dose 2 g a.i./ha): 0% | Reduction [%] ([4]; HER dose 2 g a.i./ha): 100% | Reduction [Difference] ([4]; HER dose 2 g a.i./ha): 85 | HER effect [%] (crop damage, herbicide without safener) ([4]; HER dose 2 g a.i./ha): 85% | HER effect + SAF [%] (crop damage) ([4]; HER dose 8 g a.i./ha): 10% | Reduction [%] ([4]; HER dose 8 g a.i./ha): 89% | Reduction [Difference] ([4]; HER dose 8 g a.i./ha): 83 | HER effect [%] (crop damage, herbicide without safener) ([4]; HER dose 8 g a.i./ha): 93% | HER effect + SAF [%] (crop damage) ([4]; HER dose 32 g a.i./ha): 20% | Reduction [%] ([4]; HER dose 32 g a.i./ha): 79% | Reduction [Difference] ([4]; HER dose 32 g a.i./ha): 75 | HER effect [%] (crop damage, herbicide without safener) ([4]; HER dose 32 g a.i./ha): 95%

COC(=O)C1(C)CC(NC(=O)C2(C(C)(F)F)CC(c3cc(F)cc(F)c3)=NO2)CO1 (mixture of isomers) [Example 1.94]
HER effect + SAF [1, 7]: 0% | Reduction [%] [1, 7]: 100% | Reduction [Difference] [1, 7]: 30 | HER effect + SAF [1, 5]: 30% | Reduction [%] [1, 5]: 67% | Reduction [Difference] [1, 5]: 60 | HER effect + SAF [1, 6]: 70% | Reduction [%] [1, 6]: 22% | Reduction [Difference] [1, 6]: 20 | HER effect ([1]; herbicide alone 2 g a.i./ha): 30% | HER effect ([1]; herbicide alone 8 g a.i./ha): 90% | HER effect ([1]; herbicide alone 32 g a.i./ha): 90% | HER effect + SAF [2, 11]: 0% | Reduction [%] [2, 11]: 100% | Reduction [Difference] [2, 11]: 20 | HER effect + SAF [2, 12]: 0% | Reduction [%] [2, 12]: 100% | Reduction [Difference] [2, 12]: 85 | HER effect + SAF [2, 13]: 10% | Reduction [%] [2, 13]: 88% | Reduction [Difference] [2, 13]: 75 | HER effect ([2]; herbicide alone 1.5 g a.i./ha): 20% | HER effect ([2]; herbicide alone 6 g a.i./ha): 85% | HER effect ([2]; herbicide alone 24 g a.i./ha): 85% | HER effect + SAF ([3]; HER 2 g a.i./ha post-emergence): 0% | Reduction [%] ([3]; HER 2 g a.i./ha post-emergence): 100% | Reduction [Difference] ([3]; HER 2 g a.i./ha post-emergence): 30 | HER effect + SAF ([3]; HER 8 g a.i./ha post-emergence): 20% | Reduction [%] ([3]; HER 8 g a.i./ha post-emergence): 78% | Reduction [Difference] ([3]; HER 8 g a.i./ha post-emergence): 70 | HER effect + SAF [3, 8]: 30% | Reduction [%] [3, 8]: 67% | Reduction [Difference] [3, 8]: 60 | HER effect ([3]; herbicide alone 2 g a.i./ha post-emergence): 30% | HER effect [3, 9]: 90% | HER effect [3, 10]: 90% | HER effect + SAF [%] (crop damage) ([4]; HER dose 1.5 g a.i./ha): 0% | Reduction [%] ([4]; HER dose 1.5 g a.i./ha): 100% | Reduction [Difference] ([4]; HER dose 1.5 g a.i./ha): 20 | HER effect [%] (crop damage, herbicide without safener) ([4]; HER dose 1.5 g a.i./ha): 20% | HER effect + SAF [%] (crop damage) ([4]; HER dose 6 g a.i./ha): 10% | Reduction [%] ([4]; HER dose 6 g a.i./ha): 88% | Reduction [Difference] ([4]; HER dose 6 g a.i./ha): 75 | HER effect [%] (crop damage, herbicide without safener) ([4]; HER dose 6 g a.i./ha): 85% | HER effect + SAF [%] (crop damage) ([4]; HER dose 24 g a.i./ha): 20% | Reduction [%] ([4]; HER dose 24 g a.i./ha): 76% | Reduction [Difference] ([4]; HER dose 24 g a.i./ha): 65 | HER effect [%] (crop damage, herbicide without safener) ([4]; HER dose 24 g a.i./ha): 85%
